In ChEMBL document CHEMBL1817607, “Synthesis and antiplasmodial activity of bicyclic dioxanes as simplified dihydroplakortin analogues” (J Med Chem, 2011):

Legend:
Plasmodium falciparum [1] = test: Antiplasmodial activity against chloroquine-sensitive Plasmodium falciparum D10 infected in human type A-positive RBC assessed as inhibition of parasite LDH activity after 72 hrs by spectrophotometrically; format: functional, organism-based; conditions: D10, 72 h
Plasmodium falciparum [2] = test: Antiplasmodial activity against chloroquine-resistant Plasmodium falciparum W2 infected in human type A-positive RBC assessed as inhibition of parasite LDH activity after 72 hrs by spectrophotometric analysis; format: functional, organism-based; conditions: W2, 72 h

Structure (SMILES): CCC(CC)C[C@@]1(C)C[C@@H](CC)[C@@H](CC(=O)OC)OO1
- IC50 (Plasmodium falciparum [1]): 0.89 µM
- IC50 (Plasmodium falciparum [2]): 0.64 µM

Structure (SMILES): CCC(CC)C[C@]1(C)C[C@@H](CC)[C@@H](CC(=O)OC)OO1
- IC50 (Plasmodium falciparum [1]): 2.4 µM
- IC50 (Plasmodium falciparum [2]): 0.87 µM

Structure (SMILES): CCC(CC)C[C@@]1(C)C[C@@H](CC)[C@@H]([C@H](O)CO)OO1
- IC50 (Plasmodium falciparum [1]): 1.2 µM
- IC50 (Plasmodium falciparum [2]): 0.84 µM

Structure (SMILES): CCC(CC)C[C@]1(C)C[C@@H](CC)[C@@H]([C@H](O)CO)OO1
- IC50 (Plasmodium falciparum [1]): 2.4 µM
- IC50 (Plasmodium falciparum [2]): 1.3 µM

Structure (SMILES): CC[C@@H]1CC(C)(C)OO[C@@H]1[C@H](O)CO
- IC50 (Plasmodium falciparum [1]): > 10 µM
- IC50 (Plasmodium falciparum [2]): > 10 µM

Structure (SMILES): CC[C@@H]1CC(C)(C)OO[C@@H]1[C@H](O)COC(C)=O
- IC50 (Plasmodium falciparum [1]): > 10 µM
- IC50 (Plasmodium falciparum [2]): > 10 µM

Structure (SMILES): CCCCC1(C)C[C@]2(C)CCO[C@@H]2OO1 (mixture of isomers)
- IC50 (Plasmodium falciparum [1]): 2.9 µM
- IC50 (Plasmodium falciparum [2]): 1.4 µM

Structure (SMILES): CCCCCC1(C)C[C@]2(C)CCO[C@@H]2OO1 (mixture of isomers)
- IC50 (Plasmodium falciparum [1]): 2.9 µM
- IC50 (Plasmodium falciparum [2]): 1.5 µM

Structure (SMILES): CCC(CC)CC1(C)C[C@]2(C)CCO[C@@H]2OO1 (mixture of isomers)
- IC50 (Plasmodium falciparum [1]): 0.76 µM
- IC50 (Plasmodium falciparum [2]): 0.39 µM

Structure (SMILES): CC1(CC2CCCC2)C[C@]2(C)CCO[C@@H]2OO1 (mixture of isomers)
- IC50 (Plasmodium falciparum [1]): 0.55 µM
- IC50 (Plasmodium falciparum [2]): 0.34 µM

Structure (SMILES): CC1(CC2CCCCC2)C[C@]2(C)CCO[C@@H]2OO1 (mixture of isomers)
- IC50 (Plasmodium falciparum [1]): 0.49 µM
- IC50 (Plasmodium falciparum [2]): 0.36 µM

Structure (SMILES): CC1(CC2C3CC4CC(C3)CC2C4)C[C@]2(C)CCO[C@@H]2OO1 (mixture of isomers)
- IC50 (Plasmodium falciparum [1]): 0.23 µM
- IC50 (Plasmodium falciparum [2]): 0.15 µM

Structure (SMILES): CCCCC1(C)C[C@@H]2CCO[C@@H]2OO1 (mixture of isomers)
- IC50 (Plasmodium falciparum [1]): > 10 µM
- IC50 (Plasmodium falciparum [2]): > 10 µM

Structure (SMILES): CCCCCC1(C)C[C@@H]2CCO[C@@H]2OO1 (mixture of isomers)
- IC50 (Plasmodium falciparum [1]): > 10 µM
- IC50 (Plasmodium falciparum [2]): > 10 µM

Structure (SMILES): CCC(CC)CC1(C)C[C@@H]2CCO[C@@H]2OO1 (mixture of isomers)
- IC50 (Plasmodium falciparum [1]): > 10 µM
- IC50 (Plasmodium falciparum [2]): 8.6 µM

Structure (SMILES): CC(C)c1ccccc1[C@H]1C[C@]2(C)CCO[C@@H]2OO1 (racemic)
- IC50 (Plasmodium falciparum [1]): 8.3 µM
- IC50 (Plasmodium falciparum [2]): 4.6 µM

Structure (SMILES): CC1(C)C[C@]2(C)CCO[C@@H]2OO1 (racemic)
- IC50 (Plasmodium falciparum [1]): > 10 µM
- IC50 (Plasmodium falciparum [2]): > 10 µM

Structure (SMILES): CC[C@@]12CCO[C@@H]1OOC(C)(C)C2 (racemic)
- IC50 (Plasmodium falciparum [1]): > 10 µM
- IC50 (Plasmodium falciparum [2]): > 10 µM

Structure (SMILES): CC(C)C[C@@]12CCO[C@@H]1OOC(C)(C)C2 (racemic)
- IC50 (Plasmodium falciparum [1]): > 10 µM
- IC50 (Plasmodium falciparum [2]): > 10 µM

Structure (SMILES): C[C@@]12CCO[C@@H]1OO[C@@H](c1ccccc1)C2 (racemic)
- IC50 (Plasmodium falciparum [1]): > 20 µM
- IC50 (Plasmodium falciparum [2]): > 20 µM

Structure (SMILES): Cc1ccccc1[C@H]1C[C@]2(C)CCO[C@@H]2OO1 (racemic)
- IC50 (Plasmodium falciparum [1]): > 20 µM
- IC50 (Plasmodium falciparum [2]): 11 µM

Structure (SMILES): CCc1ccccc1[C@H]1C[C@]2(C)CCO[C@@H]2OO1 (racemic)
- IC50 (Plasmodium falciparum [1]): 15 µM
- IC50 (Plasmodium falciparum [2]): 7.7 µM

Structure (SMILES): CC(C)Cc1ccccc1[C@H]1C[C@]2(C)CCO[C@@H]2OO1 (racemic)
- IC50 (Plasmodium falciparum [1]): 13 µM
- IC50 (Plasmodium falciparum [2]): 5.7 µM

Structure (SMILES): C[C@@]12CCO[C@@H]1OO[C@H](c1ccccc1)C2 (racemic)
- IC50 (Plasmodium falciparum [1]): > 20 µM
- IC50 (Plasmodium falciparum [2]): > 20 µM

Structure (SMILES): Cc1ccccc1[C@@H]1C[C@]2(C)CCO[C@@H]2OO1 (racemic)
- IC50 (Plasmodium falciparum [1]): > 20 µM
- IC50 (Plasmodium falciparum [2]): > 20 µM

Structure (SMILES): CCc1ccccc1[C@@H]1C[C@]2(C)CCO[C@@H]2OO1 (racemic)
- IC50 (Plasmodium falciparum [1]): > 20 µM
- IC50 (Plasmodium falciparum [2]): > 20 µM

Structure (SMILES): CC1(C)C[C@@H]2CCO[C@@H]2OO1 (relative stereo)
- IC50 (Plasmodium falciparum [1]): > 10 µM
- IC50 (Plasmodium falciparum [2]): > 10 µM
